Paper PMC7116804 (Green chemistry : an international journal and green …, 2019)

Molecular target: Aa-ADH (Aromatoleum aromaticum, UniProt Q5P5I4)
Experiment: oxidation of diol […] isomer mixture, product analysis
Assay type: biochemical
Settings: NAD+ 1 mM recycled by NOX; Tris-HCl pH 7.5, 30 °C, 24 h

Aa-ADH, sequence (Q5P5I4 2-249): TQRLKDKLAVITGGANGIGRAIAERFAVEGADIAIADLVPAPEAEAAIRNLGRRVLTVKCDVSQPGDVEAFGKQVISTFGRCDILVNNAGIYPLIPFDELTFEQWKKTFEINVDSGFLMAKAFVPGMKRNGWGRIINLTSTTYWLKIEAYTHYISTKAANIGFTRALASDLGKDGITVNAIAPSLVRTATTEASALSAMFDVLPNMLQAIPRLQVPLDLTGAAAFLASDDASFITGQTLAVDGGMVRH

Row | SMILES | oxidation of diol 3 isomer mixture, product analysis
1 | C[C@@H](O)[C@H](O)c1ccccc1 [1R,2R-3] | Aa-ADH oxidized 1R,2R-3, 1S,2S-3 and 1R,2S-3
2 | C[C@H](O)[C@@H](O)c1ccccc1 [1S,2S-3] | Aa-ADH oxidized 1R,2R-3, 1S,2S-3 and 1R,2S-3
